Target: T1, IRAK3 (Homo sapiens, UniProt Q9Y616)
T1 construct: IRAK Endogenous HTRF Degradation Assay; endogenous in cells
T1 sequence (Q9Y616 1-596): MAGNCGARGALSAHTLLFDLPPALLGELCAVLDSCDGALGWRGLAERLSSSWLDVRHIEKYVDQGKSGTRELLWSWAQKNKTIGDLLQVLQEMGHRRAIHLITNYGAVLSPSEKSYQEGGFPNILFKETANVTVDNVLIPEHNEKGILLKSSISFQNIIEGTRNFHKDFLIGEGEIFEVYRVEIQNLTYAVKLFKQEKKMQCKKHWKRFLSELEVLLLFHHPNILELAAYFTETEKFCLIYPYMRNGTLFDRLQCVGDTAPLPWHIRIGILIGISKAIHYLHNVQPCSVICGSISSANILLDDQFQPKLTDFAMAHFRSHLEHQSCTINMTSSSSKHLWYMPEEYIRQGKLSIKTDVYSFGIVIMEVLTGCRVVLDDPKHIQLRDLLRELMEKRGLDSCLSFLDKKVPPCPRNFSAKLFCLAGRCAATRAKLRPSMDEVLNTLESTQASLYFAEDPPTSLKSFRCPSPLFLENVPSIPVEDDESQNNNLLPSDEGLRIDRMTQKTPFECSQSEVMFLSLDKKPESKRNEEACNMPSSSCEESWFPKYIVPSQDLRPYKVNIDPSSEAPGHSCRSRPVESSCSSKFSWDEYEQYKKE
Assay: IRAK3 biochemical binding assay (LanthaScreen Eu Kinase Binding, TR-FRET)
How it was run: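 TR-FRET tracer-displacement binding with 10 nM IRAK3, 2 nM Eu-anti-GST antibody and 10 nM tracer in 50 mM HEPES pH 7.4, MgCl2, 1 mM EGTA, 0.01% Brij-35. Compounds in 3-fold dilutions, 1 h at room temperature. 665/615 nm ratio gave % inhibition; IC50 and Hill slope from dose-response fit.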

Structure (SMILES) | IC50
Cc1cc(-c2cnc(Nc3cnn(C4CCN(CC(=O)N5CCN(c6ccc7c(c6)C(=O)N(C6CCC(=O)NC6=O)C7)CC5)CC4)c3)c3nccn23)c(F)cc1F (stereo not shown) [Compound 18, 3-(6-(4-(2-(4-(4-((5-(2,4-difluoro-5-methylphenyl)imidazo[1,2-a]pyrazin-8-yl)amino)-1H-pyrazol-1-yl)piperidin-1-yl)acetyl)piperazin-1-yl)-1-oxoisoindolin-2-yl)piperidine-2,6-dione] | 0.5 nM
Cc1cccc(-c2cnc(Nc3cnn(C4CCN(CC(=O)N5CCN(c6ccc7c(c6)CN(C6CCC(=O)NC6=O)C7=O)CC5)CC4)c3)c3nccn23)c1 (stereo not shown) [Compound 19, 3-(1-oxo-5-(4-(2-(4-(4-((5-(m-tolyl)imidazo[1,2-a]pyrazin-8-yl)amino)-1H-pyrazol-1-yl)piperidin-1-yl)acetyl)piperazin-1-yl)isoindolin-2-yl)piperidine-2,6-dione] | 1.8 nM
Cc1cc(-c2cnc(Nc3cnn(C4CCN(CCN5CCN(c6cccc(C7CCC(=O)NC7=O)c6)CC5)CC4)c3)c3nccn23)c(F)cc1F (stereo not shown) [Compound 31, 3-(3-(4-(2-(4-(4-((5-(2,4-difluoro-5-methylphenyl)imdazo [1,2-a]pyrazin-8-yl)amino)-1H-pyrazol-1-yl)piperidin-1-yl)ethyl)piperazin-1-yl)phenyl) piperidine-2,6-dione] | 6.1 nM
Cc1cc(-c2cnc(Nc3cnn(C4CCN(CCN5CCN(c6ccc(C7CCC(=O)NC7=O)cc6)CC5)CC4)c3)c3nccn23)ccc1F (stereo not shown) [Compound 33, 3-(4-(4-(2-(4-(4-((5-(4-fluoro-3-methylphenyl)imdazo [1,2-a]pyrazin-8-yl)amino)-1H-pyrazol-1-yl)piperidin-1-yl)ethyl)piperazin-1-yl)phenyl) piperidine-2,6-dione] | 12 nM
Cc1cc(-c2cnc(Nc3cnn([C@H]4CCN(CCN5CCN(c6ccc(C7CCC(=O)NC7=O)cc6)C[C@H]5C)[C@@H](C)C4)c3)c3nccn23)c(F)cc1F (stereo partly drawn) [Compound 35, 3-(4-((R)-4-(2-((2S,4S)-4-(4-((5-(2,4-difluoro-5-methylphenyl)imdazo [1,2-a]pyrazin-8-yl)amino)-1H-pyrazol-1-yl)-2-methylpiperidin-1-yl)ethyl)-3-methylpiperazin-1-yl)phenyl) piperidine-2,6-dione] | 0.65 nM
Cc1cc(-c2cnc(Nc3cnn([C@H]4CCN(CCN5CCN(c6ccc(C7CCC(=O)NC7=O)cc6)CC5)C[C@@H]4F)c3)c3nccn23)c(F)cc1F (stereo partly drawn) [Compound 72, 3-(4-(4-(2-((3S,4S)-4-(4-((5-(2,4-difluoro-5-methylphenyl)imdazo [1,2-a]pyrazin-8-yl)amino)-1H-pyrazol-1-yl)-3-fluoropiperidin-1-yl)ethyl)piperazin-1-yl)phenyl) piperidine-2,6-dione] | 1.2 nM
O=C1CCC(c2ccc(N3CCN(CCN4CCC(n5cc(Nc6ncc(-c7ccc(F)cc7)n7ccnc67)cn5)CC4)CC3)cc2)C(=O)N1 (stereo not shown) [Compound 74, 3-(4-(4-(2-(4-(4-((5-(4-fluorophenyl)imidazo [1,2-a]pyrazin-8-yl)amino)-1H-pyrazol-1-yl)piperidin-1-yl)ethyl)piperazin-1-yl)phenyl) piperidine-2,6-dione] | 5.6 nM
O=C1CCC(c2ccc(N3CCN(CCN4CCC(n5cc(Nc6ncc(-c7ccccc7F)n7ccnc67)cn5)CC4)CC3)cc2)C(=O)N1 (stereo not shown) [Compound 75, 3-(4-(4-(2-(4-(4-((5-(2-fluorophenyl)imidazo [1,2-a]pyrazin-8-yl)amino)-1H-pyrazol-1-yl)piperidin-1-yl)ethyl)piperazin-1-yl)phenyl) piperidine-2,6-dione] | 14 nM
Cc1cc(-c2cnc(Nc3cnn(C4CCN(CCN5CCN(c6ccc([C@]7(C)CCC(=O)NC7=O)cc6)CC5)CC4)c3)c3nccn23)c(F)cc1F [Compound 76, (S)-3-(4-(4-(2-(4-(4-((5-(2,4-difluoro-5-methylphenyl)imdazo [1,2-a]pyrazin-8-yl)amino)-1H-pyrazol-1-yl)piperidin-1-yl)ethyl)piperazin-1-yl)phenyl)-3-methylpiperidine-2,6-dione] | 1.7 nM
Cc1cc(-c2cnc(Nc3cnn(C4CCN(CCN5CCN(c6ccc([C@@]7(C)CCC(=O)NC7=O)cc6)CC5)CC4)c3)c3nccn23)c(F)cc1F [Compound 77, (R)-3-(4-(4-(2-(4-(4-((5-(2,4-difluoro-5-methylphenyl)imdazo [1,2-a]pyrazin-8-yl)amino)-1H-pyrazol-1-yl)piperidin-1-yl)ethyl)piperazin-1-yl)phenyl)-3-methylpiperidine-2,6-dione] | 2 nM
O=C1CCC(c2ccc(N3CCN(CCN4CCC(n5cc(Nc6ncc(-c7cccc(F)c7)n7ccnc67)cn5)CC4)CC3)cc2)C(=O)N1 (stereo not shown) [Compound 80, 3-(4-(4-(2-(4-(4-((5-(3-fluorophenyl)imidazo [1,2-a]pyrazin-8-yl)amino)-1H-pyrazol-1-yl)piperidin-1-yl)ethyl)piperazin-1-yl)phenyl) piperidine-2,6-dione] | 140 nM
Cc1cc(-c2cnc(Nc3cnn([C@H]4CC[C@H](CCN5CCN(c6ccc([C@@]7(C)CCC(=O)NC7=O)cc6)CC5)CC4)c3)c3nccn23)c(F)cc1F [Compound 81, (R)-3-(4-(4-(2-((trans)-4-(4-((5-(2,4-difluoro-5-methylphenyl)imidazo[1,2-a]pyrazin-8-yl)amino)-1H-pyrazol-1-yl)cyclohexyl)ethyl)piperazin-1-yl)phenyl)-3-methylpiperidine-2,6-dione] | 10 nM
Cc1cc(-c2cnc(Nc3cnn([C@H]4CC[C@H](CCN5CCN(c6ccc([C@]7(C)CCC(=O)NC7=O)cc6)CC5)CC4)c3)c3nccn23)c(F)cc1F [Compound 82, (S)-3-(4-(4-(2-((trans)-4-(4-((5-(2,4-difluoro-5-methylphenyl)imidazo[1,2-a]pyrazin-8-yl)amino)-1H-pyrazol-1-yl)cyclohexyl)ethyl)piperazin-1-yl)phenyl)-3-methylpiperidine-2,6-dione] | 17 nM

— patent US20260216347A1, “Substituted Imidazo-Based Compounds as Ligand Directed Degraders of IRAK3” (Celgene Corporation, priority 2022, published 2026)
